# Test results as given in patent publication US20250302720A1, “PEPTIDE-BASED HAIR TREATMENT” (Sederma, priority 2020, published 2025).
# Residues, ends and D or L forms follow the SMILES beside them.
# How the values were obtained:
# tyrosinase = assay: Tyrosinase (dopa-oxidase) activity extracted from NHM after 10 days; type: cell-based, human; details: vs control, n = 4
# Method: The same culture and contact protocol as above are used with the melanocytes of two different donors with regard to their production of melanin (moderately and poorly pigmented).
# After contact, the tyrosinase was extracted from the cells and its dopa-oxidase activity is assessed using the substrate L-DOPA at 37° C. The absorbance due to the production of Dopaquinone is measured at 490 nm and converted to activity units using a preset range. A protein assay using the Bicinchoninic Acid (BCA) method is used to estimate cell quantity and thus to homogenize the obtained data.
# [1] = tested on: Normal human melanocytes (NHM); assay: Reduction of the ROS quantity in NHM (DCFH-DA probe, with or without H2O2 stress); type: cell-based; details: for ROS quantity, variation: 24 h, vs control, n = 3
# Method: Normal human melanocytes (NHM) almost at confluence are brought into contact with the peptide according to the invention for 24 hours. At the end of this contact, the cells are contacted with a DCFH-DA probe which is inserted into these cells. After rinsing to remove the excess probe, the cells are placed in contact with H2O2 to mimic oxidative stress. A case without oxidative stress is also realized. The reaction of H2O2 with the probe in the cell is measured by fluorescence. An estimate of the quantity of cells is carried out in parallel to harmonize the results.
# TYRP1 = assay: Expression of melanogenesis genes in NHM (qRTPCR): TYRP1; type: cell-based, human; details: 72 h, vs control, n = 4
# Method: (§1) NHM are cultivated and brought into contact with the peptide according to the invention or its solvent. At the end of 72 h of contact, the melanocytes are crushed, and the mRNAs are recovered, converted into cDNA which are analyzed by qRTPCR, to estimate the changes in the expression level of the mRNAs. The expression of the following genes has been studied: MITF, TYRP1 and CREB.
# [2] = In-vivo tolerance: adverse effects reported by the volunteers; parameters: species or system human
# Method: The in-vivo tests were carried out by applying the hair lotion described above in point 1) in the Galenic part. This lotion comprises 90 ppm of the peptide of the invention. Four independent studies were conducted with a total of 84 volunteers (average age of the entire panel of selected volunteers was 42 years). All four studies were conducted over a wide range of geographical locations, times, seasons, application sites, phototypes and methods. The details are specified in the below table.
# MITF [3] = assay: MITF labelling by immunohistology in isolated hair follicles; type: cell-based, human; details: 10 ppm, 8 days; decreases in the control case
# Method: (§2) Follicles comprising their bulb with little pigment and isolated from a scalp plasty (resulting from cosmetic surgery— donor, dark blond; person) are placed individually in the wells of a culture plate containing the culture medium and maintained for survival (37° C.; 5% CO2).
# (§3) Twelve follicles are reserved for T0 to serve as a reference for visual estimation and quantification of pigmentation but also for subsequent labeling of MC1R and MITF by immunohistology (six follicles for each marker).
# (§4) Twelve follicles are placed in contact with the peptide according to the invention at 10 ppm in its solvent and twelve others in contact with the solvent alone for 8 days (0.1% DMSO in culture medium). At 8 days, all the follicles are stopped and fixed, then sectioned (7 μm) and marked with alunated carmine and photographed under a microscope. Sections of 6 of them (for each group) are used for visual and quantitative assessment by image analysis of their pigmentation (with specific filter to measure melanin). Sections of the other 6 are used for MC1R and MITF scoring, which is to be assessed by visual estimation.
# MITF [4] = assay: Expression of melanogenesis genes in NHM (qRTPCR): MITF; type: cell-based, human; details: 72 h, vs control, n = 4
# Method: as §1
# MC1R = MC1R labelling by immunohistology in isolated hair follicles; type: cell-based, human; details: 10 ppm, 8 days
# Method: as §2, §3, §4
# BCL-2 gene = BCL-2 gene expression in NHM (qRTPCR); type: cell-based, human; details: 72 hours, vs control
# Method: NHM are cultivated and brought into contact with the peptide according to the invention or its solvent. At the end of 72 hours of contact, the melanocytes are crushed, and the mRNA are recovered, converted into cDNA which are analyzed by a qRTPCR to evaluate the changes in the level of expression of the mRNA of BCL-2.
smiles,measurement,setting,value
"CCCCCCCCCCCCCCCC(=O)N1CCC[C@H]1C(=O)N1CCC[C@H]1C(=O)O [Pal-PP-OH, palmitoyl-prolyl-proline] (HELM PEPTIDE1{[CCCCCCCCCCCCCCCC(=O)[*:2]].P.P}$$$$V2.0)","Tyrosinase activity, Variation (%)","tyrosinase; 5 ppm, poorly pigmented (§§) NHM",+15%; p < 0.05
same,"Tyrosinase activity, Variation (%)","tyrosinase; 7 ppm, moderately pigmented (§) NHM",+14%; p < 0.01
same,"Tyrosinase activity, Variation (%)","tyrosinase; 10 ppm, moderately pigmented (§) NHM",+27%; p < 0.01
same,"Tyrosinase activity, Variation (%)","tyrosinase; 10 ppm, poorly pigmented (§§) NHM",+74%; p < 0.01
same,"ROS quantity, variation","[1]; 10 ppm, after the H2O2 stress",−25%; p < 0.01
same,"ROS quantity, variation","[1]; 10 ppm, without H2O2 stress (basal state)",−23%; p < 0.01
same,"ROS quantity, variation","[1]; 12.5 ppm, after the H2O2 stress",−33%; p < 0.01
same,"ROS quantity, variation","[1]; 12.5 ppm, without H2O2 stress (basal state)",−24%; p < 0.01
same,reduction of the production of intracellular peroxide,"[1]; during oxidative stress, vs. control",33%
same,variation in the expression of TYRP1 gene,TYRP1; 10 ppm,+42%; p < 0.01
same,variation in the expression of TYRP1 gene,TYRP1; 12.5 ppm,+54%; p < 0.01
same,negative feedbacks,[2]; 3 months after the last application,no negative feedbacks
same,adverse effects,"[2]; lotion 90 ppm, at 3 or 4 months",No adverse effects were reported
same,"MITF in the bulb, visual estimation compared to T0",MITF [3],increased
same,variation in the expression of MITF gene,MITF [4]; 10 ppm,+39%; p < 0.01
same,variation in the expression of MITF gene,MITF [4]; 12.5 ppm,+42%; p < 0.01
same,"MC1R in the lower sheaths, visual estimation vs control",MC1R,increased more
same,"MC1R in the bulb, visual estimation compared to T0",MC1R; stable in the control case,increased
same,"expression of the BCL-2 gene, Variation (%)","BCL-2 gene; 10 ppm, n = 4",+62%; p < 0.01
same,"expression of the BCL-2 gene, Variation (%)","BCL-2 gene; 12.5 ppm, n = 4",+99%; p < 0.01
same,"expression of the BCL-2 gene, Variation (%)","BCL-2 gene; 12.5 ppm, n = 4, listed as peptide of the invention",+99%
